Structures can show the parent of a compound that is named as a salt.
Experiments:
[1] = antihistamic effect, literature value; cited from earlier work
[2] = biological target: T1, enucleated ileum of a guinea pig (Cavia porcellus, UniProt P31389); test: Antihistamine activity test in vitro (enucleated guinea pig ileum, histamine retraction, pA2 by Van Rossam method); details: 10^-6 g/ml test compound, 5 minutes before histamine, 36° C.
T1 construct: the tissue of ileum is cut to a length of 2.5 to 3.0 cm and suspended in an organ bath; from tissue; host or cells: isolated ileum from the ileocecal region of male guinea pig
Description: As to the test method for determining antihistamine activity of a compound in vitro, a method of using an enucleated ileum of a guinea pig is generally accepted.
A male guinea pig having 300 to 500 g body weight is killed by blood letting. An ileum having a length of 15 cm being enculeated from the ileocecal region is dipped into Tyrode's solution (which is prepared from […], 0.2 g of KCl, 0.2 g of CaCl2, 1.0 g of glucose, 1.0 g of NaHCO3, 0.065 g of NaHPO4.2H2 O and 0.2135 g of MgCl2.6H2 O to make 1000 ml in total volume by adding water). Then the tissue of ileum is cut to a length of 2.5 to 3.0 cm and suspended in an organ bath filled with 30 ml of Tyrode's solution. The organ bath is kept at a temperature of 36° C. and a mixed gas consisting of 5% of CO2 and 95% of O2 is blown into the bath. 10 Minutes after the blowing, 10^-6 M of histamine is added to the bath to examine the sensitivity of the tissue and a reaction curve (control) with respect to the dosage of histamine is obtained. After the dosage of histamine-reaction curve (control) becomes constant, 10^-6 g/ml of a compound to be tested is added to the bath and further histamine is added 5 minutes later to obtain a dosage-reaction curve. Retraction of the ileum is recorded on a pen-recorder through an isotonic transducer [TD-112S manufactured by Nihon Koden]. Antihistamine activity of the test compound is determined as pA2 value by the "Van Rossam" method [J. M. Van Rossam; Arch. Inst. Pharmacodyn., 143, 299 (1963)] wherein the maximum retraction of ileum caused by histamine shown in the control curve is 100%.

[3] = Halothane anesthesia increasing activity (righting reflex); format: in vivo, mouse (male, ddy-strain); details: oral
Description: Male mice of ddy-strain having about 20 g body weight are used. One test group consists of 10 mice. An aqueous Gummi Arabicum suspension of test compound (80 mg of a compound to be tested and 1 g of Gummi Arabicum/100 ml of physiological NaCl solution) is administered orally to each mouse at the dosage of 8 mg of test compound/kg body. One hour after the administration, each mouse is placed in a gas respiration chamber (13×13×24 cm) and oxygen gas containing 4% of Halothane [2-bromo-2-chloro-1,1,1-trifluoroethane] is blown into the chamber at the velocity of 2 l/min for 3 minutes. A mouse anaesthetized is taken out from the chamber and the time between the introduction of anesthesia to waking is measured by righting reflex as the index. To mice of the control group, 1% Gummi Arabicum aqueous physiological solution is orally administered at the dosage of 0.1 ml/10 g body. [Reference: M. J. Turnbull and J. W. Watkins: Br. J. Pharmac., 58, 27-35 (1976)]
Same procedures as mentioned in (II)-(A) are employed, except that the amount of test compound to be orally administered is changed in 4 steps at the dosage of 0.5 mg/kg, 1 mg/kg, 2 mg/kg and 4 mg/kg respectively to measure the relationship between the dosage and degree of strength of anesthesia increasing activity.

[4] = Hexabarbital sleep increasing activity (righting reflex); format: in vivo, mouse (male, ddy-strain); details: oral, Hexabarbital Na 70 mg/kg i.p.
Description: Male mice of ddy-strain having 20 to 25 g body weight are starved for 24 hours. One test group consists of 10 mice. An aqueous Gummi Arabicum suspension of test compound (0.05 g of test compound and 1 g of Gummi Arabicum/100 ml of physiological NaCl solution) is administered orally at the dosage mentioned in the Table 4. One hour after the administration 0.7% of Hexabarbitol.Na-salt is intraperitonerally administered at the dosage of 70 mg/kg body weight. The time between the introduction of sleep to waking is measured by righting reflex as the index. [Reference: A. M. Hjort, De E. J. Beer and D. W. Fassett; J. Pharmac., Exptl.

[5] = Activity for inhibiting fighting behavior of mouse isolated singly for a long period of time; format: in vivo, mouse (male, ddy-strain); details: positive if fighting no longer than 5 seconds in a minute, range in parentheses, read-out: ED50 (inhibition of fighting behavior)
Description: Individual male mice of ddy-strain having 15 to 20 g of body weight are breeded separately in respective cages for 1 month. One test group consists of 10 pairs of mice. The pairs of mice are selected so that when one mouse is taken into the home cage of another, the two mice fight together continuously for over 30 seconds. ED50 values are calculated by administering the respective test compounds to each test groups of mice. Activity for inhibiting fighting behavior of the test compound is determined as positive in case the administered mice only continue the fighting for no longer than 5 seconds in a minute. When the mice continue the fighting over 5 seconds they are forced to separate for the purpose of reducing the number of injured mice. [Reference: C. Y. Yen, R. L. Stanger and N. Millman: Arch. Int. Pharmacodyn., 123, 179 (1959)]

[6] = Analgetic activity (acetic acid writhing); format: in vivo, mouse (male, ddy-strain); details: Mus musculus, 50 min; oral, 50 minutes before acetic acid i.p.; range in parentheses; read-out: ED50 (analgetic activity)
Description: Male mice of ddy-strain having 15-23 g of body weight are used. One test group consists of 10 mice. The compound to be tested is administered orally by procedures similar to the method mentioned in (II). Fifty minutes after the administration, 0.1 ml of 0.6% acetic acid aqueous solution/10 g body weight is injected intraperitoneally. In case of the mice administered orally with the reference compound (Haloperidol), the injection is made 110 minutes after the administration. The number of writhings shown after 10 minutes is counted for 10 minutes and the ED50 value of respective compounds is calculated in comparison with the number of writhings shown by control group. [Reference: R. Koster, M. Anderson and E. I. Debeer: Fed. Proc., 18, 412, (1959)]

in vivo = details: mouse
Description: Mice of ddy-strain having 20-22 g of body weight are used. One test group consists of 10 mice.
Oral administration: Compound to be tested is suspended in 1% Gummi Arabicum physiological NaCl aqueous solution.
Intravenuous administration: Compound to be tested is dissolved in 50% propyleneglycol aqueous solution.

T1 sequence (P31389 whole entry): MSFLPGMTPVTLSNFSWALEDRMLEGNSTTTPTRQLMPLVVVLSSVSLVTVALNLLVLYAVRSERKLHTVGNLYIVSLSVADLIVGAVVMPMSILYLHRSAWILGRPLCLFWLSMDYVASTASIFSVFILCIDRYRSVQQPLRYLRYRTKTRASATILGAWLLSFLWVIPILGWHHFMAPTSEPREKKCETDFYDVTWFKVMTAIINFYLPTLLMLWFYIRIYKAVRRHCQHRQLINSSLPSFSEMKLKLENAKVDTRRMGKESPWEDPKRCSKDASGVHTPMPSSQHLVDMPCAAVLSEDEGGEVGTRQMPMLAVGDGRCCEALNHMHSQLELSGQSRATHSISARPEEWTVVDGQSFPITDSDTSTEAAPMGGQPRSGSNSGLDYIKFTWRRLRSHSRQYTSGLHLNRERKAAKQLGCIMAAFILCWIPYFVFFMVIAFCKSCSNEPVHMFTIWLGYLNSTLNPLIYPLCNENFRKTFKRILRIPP

For `CC(C)(C)NCC(O)COc1cccc2c1CCC(=O)N2` (stereo not drawn) [5-(3-tert-butylamino-2-hydroxy)propoxy-3,4-dihydrocarbostyril hydrochloride], the pA2 [1] is given as 5.02.
With `O=C1CCc2ccc(OCCCN3CCN(c4ccccc4)CC3)cc2N1` [Compound 6, 7-[3-(4-Phenylpiperazinyl)propoxy]-3,4-dihydrocarbostyril dihydrochloride] the Kb [2] was 457 pM, the “Anesthesia increasing activity” value ([3]; 0.5 mg/kg) was 8.2 ± 2.6 min and the “Anesthesia increasing activity” value ([3]; 1 mg/kg) was 10.3 ± 3.3 min. The “Anesthesia increasing activity” value ([3]; 2 mg/kg) was 12.1 ± 4.2 min, the “Anesthesia increasing activity” value ([3]; 4 mg/kg) was 16.6 ± 5.1 min and the “Time (minutes) between introduction of anesthesia and waking” value ([3]; 8 mg/kg, 1 hour before 4% Halothane) was 16.8 ± 6.2 min. For the same molecule, the “Sleep time (min.) [Mean ± SD]” value ([4]; 0.5 mg/kg) was 43.76 ± 6.09 min, the “Sleep time (min.) [Mean ± SD]” value ([4]; 1.0 mg/kg) was 51.24 ± 11.75 min and the “Sleep time (min.) [Mean ± SD]” value ([4]; 2.0 mg/kg) was 54.11 ± 7.80 min. The “Sleep time (min.) [Mean ± SD]” value ([4]; 4 mg/kg) was 65.13 ± 11.59 min, the “Sleep time (min.) [Mean ± SD]” value ([4]; 8 mg/kg) was 85.83 ± 12.24 min and the ED50 [5] was 0.7 mg/kg. It also gave an ED50 [6] of 2.31 mg/kg, an LD50 (in vivo; iv, female mice) of 250 mg/kg and an LD50 (in vivo; iv, male mice) of 240 mg/kg. The LD50 (in vivo; po, female mice) was 890 mg/kg and the LD50 (in vivo; po, male mice) was 920 mg/kg.

Reference: patent publication US4734416A, “Pharmaceutically useful carbostyril derivatives” (Otsuka Pharmaceutical Co., Ltd., priority 1978, dated 1988)
